Results from paper PMC11601558, “SLC6A19 inhibition facilitates urinary neutral amino acid excretion and lowers plasma phenylalanine” (JCI Insight, 2024).
Values joined by “and” are separate entries in the source; they are usually repeats but may differ in a detail not shown here. Equal entries are not always repeated.

Experiments:
SLC6A19 = target: T1, SLC6A19 (Homo sapiens, UniProt Q695T7); assay: SLC6A19 glutamine transport assay in human postmortem intestinal epithelial cells; format: cell-based; details: endogenous SLC6A19; geometric mean n = 5, 3 donors; 95% CI 33–197 nM
T1 construct: human intestinal epithelial cells with endogenous expression levels of SLC6A19; tissue AnaBios; host or cells: epithelial cells scraped from distal jejunum of human postmortem intestine (3 male donors)
Text: Human postmortem intestines from 3 male donors (ages 23–36 years) were provided by AnaBios. Following trimming of excess fat, the distal part of the jejunum was dissected into tissue sections of approximately 100 cm^2 and further processed on ice. These sections contained an estimated approximately 250 million epithelial cells ([28], [29]). Epithelial cells were scraped off each tissue section with a tissue scraper and collected in ice-cold Hank’s balanced salt solution (HBSS). Following centrifuging for 5 min at 300g at 4°C, the supernatant was aspirated and the cell pellet was washed 3–6 times by resuspending in ice-cold HBSS (Thermo Fisher Scientific). […]
Human postmortem epithelial cells isolated from small intestine were centrifuged for 5 minutes at 300g and 4°C and resuspended in Krebs buffer (140 mM sodium chloride, 4.7 mM KCl, 2.5 mM CaCl2, 1.2 mM MgCl2, 11 mM HEPES, 10 mM glucose, pH 7.4) at a density of 7.5 × 10^6 cells/mL. […] The uptake of 2,3,4-^3H–labeled L-glutamine was measured on a Microbeta^2 microplate counter (PerkinElmer).
IC50 values for transport inhibition in cells overexpressing SLC6A19 and TMEM27 were calculated using a 4-parameter logistic regression in Collaborative Drug Discovery (CDD). […] The IC50 values of individual experiments were calculated with a 3- or 4-parameter logistic regression using GraphPad Prism 9. […]

human SLC1A5 = tested on: T2, human SLC1A5; assay: SLC1A5 glutamine transport assay; format: cell-based; details: for SLC1A5 transport (Fig S2 curve point): technical replicates
T2 construct: V5; expressed in transfected cells; host or cells: Flp-In T-Rex 293 cells (Thermo Fisher), tetracycline-induced
Procedure: Supplementary Materials and Methods
Flp-In T-Rex 293 cells (Thermo Fisher) were engineered to induciblyexpress either V5-tagged human SLC1A5, SLC6A8 or SLC7A5 co-expressed with myc-DDK-tagged SLC3A2. Cells expressing SLC 1A5 or SLC6A8 were maintained in either DMEM or DMEM/F12 media supplemented with 10% FBS, 100 U/mL penicillin, 100 μg/mL streptomycin, 200 μg/mL hygromycin, and 10 μg/mL blasticidin. For cells expressing SLC7A5/SLC3A2, the media was additionally supplemented with 300 μg/mL geneticin. All cell lines were maintained at 37°C and 5% CO2. For transport experiments, all cell lines were plated in poly-D-lysine-coated 96-well plates at a density of 35,000 cells/well. One day after plating, expression of SLC1A5, SLC6A8 or SLC7A5 was induced by adding tetracycline at a concentration of 1 μg/mL. Cells were induced for 24 h prior to transport assays.
SLC1A5 glutamine transport assay
Following a 24 h induction with tetracycline, cells were washed with LCIS before JNT -517 was added in 8-point concentration-response diluted in live cell imaging solution. D -serine was used as a positive control (32)at aconcentration of 40 mM and 0.5% DMSO was used as a negative control. Cells were incubated for 20 min at room temperature and then placed on ice for an additional 5 minutes. Then, a mixture of unlabeled L-glutamine (Millipore Sigma) spiked with 4.5 μCi/mL 2,3,4- 3H-labeled L-glutamine (American Radiolabeled Chemicals) was added at a final concentration of 100 μM. After a 5 min incubation on ice, cells were washed once with ice - […]
cold LCIS and lysed in scintillation fluid (PerkinElmer). The uptake of radioactive substrate was measured on a Microbeta2 microplate counter (PerkinElmer). […]

T1 sequence (Q695T7 whole entry): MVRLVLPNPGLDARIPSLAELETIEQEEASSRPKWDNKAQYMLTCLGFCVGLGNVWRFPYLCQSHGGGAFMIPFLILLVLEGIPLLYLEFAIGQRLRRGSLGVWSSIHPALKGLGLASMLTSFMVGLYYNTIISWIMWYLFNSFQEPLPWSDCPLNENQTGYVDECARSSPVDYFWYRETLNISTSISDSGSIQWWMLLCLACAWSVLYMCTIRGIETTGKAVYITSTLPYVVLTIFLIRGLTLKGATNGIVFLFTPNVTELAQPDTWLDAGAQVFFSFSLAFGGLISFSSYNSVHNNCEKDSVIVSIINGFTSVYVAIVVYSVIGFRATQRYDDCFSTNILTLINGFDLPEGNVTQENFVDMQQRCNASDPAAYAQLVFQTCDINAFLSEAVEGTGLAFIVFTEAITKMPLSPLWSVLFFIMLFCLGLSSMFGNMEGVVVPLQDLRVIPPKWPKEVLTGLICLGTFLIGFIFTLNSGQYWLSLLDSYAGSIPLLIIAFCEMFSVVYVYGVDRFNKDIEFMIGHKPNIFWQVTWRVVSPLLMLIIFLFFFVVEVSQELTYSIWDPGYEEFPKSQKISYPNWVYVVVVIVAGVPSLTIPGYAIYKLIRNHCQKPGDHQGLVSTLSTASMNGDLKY
T1 sequence (Q9BYF1 18-805 partner): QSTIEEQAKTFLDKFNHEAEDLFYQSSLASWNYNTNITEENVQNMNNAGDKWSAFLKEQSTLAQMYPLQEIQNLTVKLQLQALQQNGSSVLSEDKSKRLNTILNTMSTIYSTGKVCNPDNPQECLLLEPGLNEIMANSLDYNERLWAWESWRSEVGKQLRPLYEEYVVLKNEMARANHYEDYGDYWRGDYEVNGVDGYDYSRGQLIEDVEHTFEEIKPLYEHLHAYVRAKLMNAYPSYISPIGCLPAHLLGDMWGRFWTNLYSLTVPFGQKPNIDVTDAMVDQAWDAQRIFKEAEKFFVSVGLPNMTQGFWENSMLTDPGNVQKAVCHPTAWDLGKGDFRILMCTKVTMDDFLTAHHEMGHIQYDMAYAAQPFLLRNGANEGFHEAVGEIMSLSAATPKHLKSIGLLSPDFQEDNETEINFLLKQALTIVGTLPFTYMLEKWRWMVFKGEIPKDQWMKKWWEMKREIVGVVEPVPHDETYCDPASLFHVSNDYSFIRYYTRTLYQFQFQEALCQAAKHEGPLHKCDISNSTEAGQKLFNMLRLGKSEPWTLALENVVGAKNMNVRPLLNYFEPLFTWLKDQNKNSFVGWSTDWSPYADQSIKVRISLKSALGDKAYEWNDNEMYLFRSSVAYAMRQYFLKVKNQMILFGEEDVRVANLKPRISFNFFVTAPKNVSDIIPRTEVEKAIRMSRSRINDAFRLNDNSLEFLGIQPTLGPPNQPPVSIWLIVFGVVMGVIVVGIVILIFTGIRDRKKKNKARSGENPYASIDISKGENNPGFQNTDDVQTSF

SMILES: NC(=O)N1CCC[C@@H](N(C(=O)NCc2ccc(OC(F)(F)F)cc2F)C2CC2)C1 [JNT-517]
- IC50 (SLC6A19): 0.081 µM
- SLC1A5 transport (Fig S2 curve point) (human SLC1A5; 0.0160037 uM): 77.6 and 89.2
- SLC1A5 transport (Fig S2 curve point) (human SLC1A5; 0.048011 uM): 105 and 120
- SLC1A5 transport (Fig S2 curve point) (human SLC1A5; 0.144033 uM): 112 and 122
- SLC1A5 transport (Fig S2 curve point) (human SLC1A5; 0.432099 uM): 125 and 131
- SLC1A5 transport (Fig S2 curve point) (human SLC1A5; 1.2963 uM): 122 and 116
- SLC1A5 transport (Fig S2 curve point) (human SLC1A5; 3.88889 uM): 125 and 121
- SLC1A5 transport (Fig S2 curve point) (human SLC1A5; 11.6667 uM): 117 and 115
- SLC1A5 transport (Fig S2 curve point) (human SLC1A5; 35 uM): 110 and 117
- inhibition of SLC1A5 (human SLC1A5; concentrations up to 35 μM): did not inhibit
